In patent publication US8481725B2, “Cycloalkylcarbonylamino acid derivative and process for producing the same” (Seikagaku Corporation, priority 2006, dated 2013):
Starred links: 1 amine or outer side, 2 acyl side, 3 side chain; linkers in the order of their positions; H or OH if unused. Non-standard residues stand in square brackets, D forms with d. Residues, ends and D or L forms follow the SMILES beside them. *: point of attachment. Ac6c = NC1(C(=O)O)CCCCC1; Morpholide = C1CN(*)CCO1; Nle = CCCC[C@H](N)C(=O)O; Cbz = O=C(OCc1ccccc1)*; CO = O=C([*:1])[*:2]

Legend:
Type in all cases: biochemical
Human cathepsin B = target: T1, Human cathepsin B (Homo sapiens, UniProt P07858); experiment: Measurement of cathepsin B inhibitory activity (fluorescent substrate Z-Arg-Arg-MCA); conditions: for IC50: pH 6.0, 30° C., 30 minutes; for B/K (ratio of IC50 cathepsin B to IC50 cathepsin K): selectivity ratio B/K
T1 construct: purchased Calbiochem Corp
Protocol: (§1) Human cathepsin B (Calbiochem Corp.) was used for measurement. Activity was measured based on decomposition of the fluorescent substrate Z-Arg-Arg-MCA (Peptide Institute, Inc.) in compliance with the method of Barrett, et al.^3). Namely, the decomposition of 20 mM Z-Arg-Arg-MCA by cathepsin B was measured in 100 mM sodium/potassium phosphate, 1 mM EDTA, 8 mM cysteine and 0.005% Brij35 at pH 6.0. The reaction was carried out for 30 minutes at 30° C., and stopped by the addition of 2×10^−5 M Calpeptin. After stopping the reaction, fluorescent intensity was measured at an excitation wavelength of 355 nm and measurement wavelength of 460 nm. Inhibition of cathepsin B by the compounds was examined using the reaction system described above.

Cathepsin K = target: T2, Cathepsin K (Oryctolagus cuniculus, UniProt P43236); experiment: Measurement of cathepsin K inhibitory activity (fluorescent substrate Z-Gly-Pro-Arg-MCA); conditions: pH 6.0, 37° C., 30 minutes
T2 construct: Active enzyme was produced by expressing cathepsin K in the form of a proenzyme; made in house; host or cells: Sf21 insect cells (baculovirus expression system)
T2 sequence (P43236 115-329): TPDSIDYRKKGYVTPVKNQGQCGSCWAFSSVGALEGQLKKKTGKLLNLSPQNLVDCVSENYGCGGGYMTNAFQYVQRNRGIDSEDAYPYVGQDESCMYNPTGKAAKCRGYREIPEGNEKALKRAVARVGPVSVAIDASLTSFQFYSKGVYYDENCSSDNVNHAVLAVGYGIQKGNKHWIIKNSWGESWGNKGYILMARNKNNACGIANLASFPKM
Protocol: Active enzyme was produced by expressing cathepsin K in the form of a proenzyme in a cell culture from a baculovirus expression system using Sf21 insect cells, followed by incubating for 1 hour at 40° C.^1). Cathepsin K activity was measured based on decomposition of the fluorescent substrate Z-Gly-Pro-Arg-MCA (Peptide Institute, Inc.) in compliance with the method of Aibe, et al.^2). Namely, the decomposition of […] Z-Gly-Pro-Arg-MCA by cathepsin K was measured in 100 mM sodium/potassium phosphate, 1 mM EDTA and 8 mM cysteine at pH 6.0. The reaction was carried out for 30 minutes at 37° C., and stopped by the addition of 2×10^−5 M Calpeptin. After stopping the reaction, fluorescent intensity was measured at an excitation wavelength of 355 nm and measurement wavelength of 460 nm. Inhibition of cathepsin K by the compounds was examined using the reaction system described above.

Human cathepsin L = target: T3, Human cathepsin L (Homo sapiens, UniProt P07711); experiment: Measurement of cathepsin L inhibitory activity (fluorescent substrate Z-Phe-Arg-MCA); conditions: for IC50: pH 5.5, 30° C., 30 minutes; for L/K (ratio of IC50 cathepsin L to IC50 cathepsin K): selectivity ratio L/K
T3 construct: purchased Calbiochem Corp
T3 sequence (P07711 114-333): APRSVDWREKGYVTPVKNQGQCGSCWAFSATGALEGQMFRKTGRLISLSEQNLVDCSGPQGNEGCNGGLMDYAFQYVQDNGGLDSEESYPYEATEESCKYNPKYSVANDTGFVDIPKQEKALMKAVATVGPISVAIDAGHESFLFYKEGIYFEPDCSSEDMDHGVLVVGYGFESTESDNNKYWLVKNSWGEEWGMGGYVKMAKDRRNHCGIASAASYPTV
Protocol: as §1, with “cathepsin L” for “cathepsin B”, “substrate Z-Phe-Arg-MCA” for “substrate Z-Arg-Arg-MCA”, “[…] Z-Phe-Arg-MCA” for “mM Z-Arg-Arg-MCA”, “mM sodium acetate, 5” for “mM sodium/potassium phosphate, 1”, “EDTA, 4 mM urea,” for “EDTA,”, “pH 5.5.” for “pH 6.0.”

IC50 (Human cathepsin B) [nM] | B/K (ratio of IC50 cathepsin B to IC50 cathepsin K) (Human cathepsin B) | IC50 (Cathepsin K) [nM] | IC50 (Human cathepsin L) [nM] | L/K (ratio of IC50 cathepsin L to IC50 cathepsin K) (Human cathepsin L) | Structure (SMILES)
390 | 230 | 1.7 | 680 | 400 | CC(C)[C@@H](C=O)NC(=O)C1(NC(=O)OCc2ccccc2)CCCCC1 [Reference Example 189, N-[[1-[[(Phenylmethoxy)carbonyl]amino]cyclohexyl]carbonyl]-L-valinal] (Cbz-[Ac6c]-Val-aldehyde)
140 | 35 | 4 | 200 | 50 | CCCC[C@@H](C=O)NC(=O)C1(NC(=O)OCc2ccccc2)CCCCC1 [Reference Example 190, N-[[1-[[(Phenylmethoxy)carbonyl]amino]cyclohexyl]carbonyl]-L-norleucinal] (Cbz-[Ac6c]-[Nle]-aldehyde)
47 | 87 | 0.54 | 200 | 370 | CC(C)[C@@H](C=O)NC(=O)C1(NC(=O)c2ccco2)CCCCC1 [Reference Example 191, N-[[1-[(2-Furanylcarbonyl)amino]cyclohexyl]carbonyl]-L-valinal]
260 | 12 | 22 | 470 | 21 | CCCC[C@@H](C=O)NC(=O)C1(NC(=O)N2CCOCC2)CCCCC1 [Reference Example 192, N-[[1-[(4-Morpholinylcarbonyl)amino]cyclohexyl]carbonyl]-L-norleucinal] ({Morpholide-CO}-[Ac6c]-[Nle]-aldehyde)
110 | 58 | 1.9 | 140 | 74 | CC(C)C[C@H](NC(=O)OCc1ccccc1)C(=O)N[C@H](C=O)C(C)C [Reference Example 193, N—[N-[(Phenylmethoxy)carbonyl]-L-leucyl]-L-valinal] (Cbz-Leu-Val-aldehyde)
13 | 4.3 | 3 | 22 | 7.3 | CCCC[C@@H](C=O)NC(=O)[C@H](CC(C)C)NC(=O)N1CCOCC1 [Reference Example 195, N—[N-(4-Morpholinylcarbonyl)-L-leucyl]-L-norleucinal]
57 | 30 | 1.9 | 67 | 35 | CC(C)C[C@H](NC(=O)c1ccco1)C(=O)N[C@H](C=O)C(C)C [Reference Example 196, N—[N-(2-Furanylcarbonyl)-L-leucyl]-L-valinal]

Structure (SMILES) | IC50 (Human cathepsin B) [nM] | B/K (ratio of IC50 cathepsin B to IC50 cathepsin K) (Human cathepsin B) | IC50 (Cathepsin K) [nM] | IC50 (Human cathepsin L) [nM] | L/K (ratio of IC50 cathepsin L to IC50 cathepsin K) (Human cathepsin L)
CCCC[C@@H](C=O)NC(=O)[C@H](CC(C)C)NC(=O)OCc1ccccc1 [Reference Example 194, N—[N-[(Phenylmethoxy)carbonyl]-L-leucyl]-L-norleucinal] | 40 | 11 | 3.5 | 53 | 15
